Test results reported in patent publication US9493448B2, “Cycloalkane derivatives” (Daiichi Sankyo Company, Limited, priority 2012, dated 2016).

Tests used:
hNav 1.7 = hNav 1.7 (Homo sapiens (Human), UniProt Q15858); experiment: Electrophysiological evaluation, automated patch clamp IonWorks Quattro (Population Patch Clamp mode); format: cell-based; settings: HEK293A cells stably expressing hNav 1.7/β1/β2; response to second depolarization pulse, pre-pulse potential set to V1/2; read-out: hNav1.7 IC50
hNav 1.7, sequence (Q15858 whole entry): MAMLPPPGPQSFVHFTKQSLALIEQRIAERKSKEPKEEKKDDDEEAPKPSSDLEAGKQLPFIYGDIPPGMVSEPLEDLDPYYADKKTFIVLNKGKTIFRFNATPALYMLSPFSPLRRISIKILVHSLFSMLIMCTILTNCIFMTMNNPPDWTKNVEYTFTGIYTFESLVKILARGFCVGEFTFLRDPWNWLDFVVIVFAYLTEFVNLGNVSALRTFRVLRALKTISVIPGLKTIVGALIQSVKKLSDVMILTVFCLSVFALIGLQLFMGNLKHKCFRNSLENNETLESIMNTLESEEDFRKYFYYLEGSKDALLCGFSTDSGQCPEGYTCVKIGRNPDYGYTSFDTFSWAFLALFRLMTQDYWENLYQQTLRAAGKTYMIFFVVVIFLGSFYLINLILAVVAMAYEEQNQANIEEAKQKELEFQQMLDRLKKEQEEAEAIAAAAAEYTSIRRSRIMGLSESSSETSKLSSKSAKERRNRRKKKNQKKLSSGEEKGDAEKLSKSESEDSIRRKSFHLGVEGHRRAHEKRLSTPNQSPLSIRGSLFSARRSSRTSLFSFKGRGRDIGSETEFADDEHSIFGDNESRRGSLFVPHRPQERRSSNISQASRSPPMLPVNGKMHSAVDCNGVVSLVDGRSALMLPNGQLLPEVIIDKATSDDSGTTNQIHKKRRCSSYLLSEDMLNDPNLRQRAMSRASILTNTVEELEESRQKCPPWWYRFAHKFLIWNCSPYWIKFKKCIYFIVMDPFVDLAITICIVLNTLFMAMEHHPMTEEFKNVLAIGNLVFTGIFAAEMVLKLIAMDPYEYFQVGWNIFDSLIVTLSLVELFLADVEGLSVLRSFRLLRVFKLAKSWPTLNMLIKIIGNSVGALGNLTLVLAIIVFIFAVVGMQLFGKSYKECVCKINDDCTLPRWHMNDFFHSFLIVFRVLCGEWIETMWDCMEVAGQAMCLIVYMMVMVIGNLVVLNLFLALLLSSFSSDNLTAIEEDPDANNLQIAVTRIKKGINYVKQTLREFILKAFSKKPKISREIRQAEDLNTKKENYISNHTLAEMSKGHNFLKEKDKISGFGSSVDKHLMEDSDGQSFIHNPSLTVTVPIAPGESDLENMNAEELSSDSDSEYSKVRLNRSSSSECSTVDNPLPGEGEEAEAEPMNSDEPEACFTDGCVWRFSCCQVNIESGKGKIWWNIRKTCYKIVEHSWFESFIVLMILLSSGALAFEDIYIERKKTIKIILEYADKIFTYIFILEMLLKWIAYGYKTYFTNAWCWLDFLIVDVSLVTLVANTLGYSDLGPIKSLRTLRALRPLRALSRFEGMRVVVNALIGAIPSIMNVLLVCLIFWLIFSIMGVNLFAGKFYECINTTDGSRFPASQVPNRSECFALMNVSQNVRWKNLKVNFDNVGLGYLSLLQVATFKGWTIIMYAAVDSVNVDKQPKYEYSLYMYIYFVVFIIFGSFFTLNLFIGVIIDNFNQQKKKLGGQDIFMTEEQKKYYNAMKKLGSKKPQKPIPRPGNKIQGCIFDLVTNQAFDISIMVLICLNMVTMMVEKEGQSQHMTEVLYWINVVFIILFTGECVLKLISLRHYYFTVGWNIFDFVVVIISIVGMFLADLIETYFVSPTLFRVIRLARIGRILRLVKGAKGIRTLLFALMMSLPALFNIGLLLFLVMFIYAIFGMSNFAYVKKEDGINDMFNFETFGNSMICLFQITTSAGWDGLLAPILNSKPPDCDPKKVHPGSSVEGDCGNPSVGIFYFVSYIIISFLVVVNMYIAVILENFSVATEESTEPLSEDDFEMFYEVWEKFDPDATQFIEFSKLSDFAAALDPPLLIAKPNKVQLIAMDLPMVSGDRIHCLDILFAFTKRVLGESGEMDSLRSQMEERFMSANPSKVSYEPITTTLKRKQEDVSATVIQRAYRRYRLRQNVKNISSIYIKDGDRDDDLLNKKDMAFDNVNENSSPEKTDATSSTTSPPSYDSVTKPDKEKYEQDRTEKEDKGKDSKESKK
hNav 1.7, sequence (Q07699 19-218 partner): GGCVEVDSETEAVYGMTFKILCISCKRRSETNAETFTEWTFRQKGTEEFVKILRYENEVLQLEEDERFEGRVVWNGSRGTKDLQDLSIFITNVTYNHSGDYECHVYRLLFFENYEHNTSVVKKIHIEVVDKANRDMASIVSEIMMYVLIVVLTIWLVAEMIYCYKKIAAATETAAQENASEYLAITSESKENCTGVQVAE
hNav 1.7, sequence (O60939 30-215 partner): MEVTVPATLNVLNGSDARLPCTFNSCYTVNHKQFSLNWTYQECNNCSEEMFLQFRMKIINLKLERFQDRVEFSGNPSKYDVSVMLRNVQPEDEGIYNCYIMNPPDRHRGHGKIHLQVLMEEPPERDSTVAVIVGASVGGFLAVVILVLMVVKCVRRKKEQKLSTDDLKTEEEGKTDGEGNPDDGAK

[1] = test system: mice and rats affected by thermal hyperalgesia; experiment: Thermal hyperalgesia assay; format: in vivo; settings: oral administration, constant dose, against the vehicle treatment group; latency to escape behaviors after thermal stimulation of hind paw;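 further: measurement times set by the study director and not disclosed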

IC50 (hNav 1.7) [µM]	Structure (SMILES)	Ratio of improving pain score (%) [1]
0.017	Cc1c(O[C@H]2CCCC[C@@H]2c2ccnn2C)ccc(S(=O)(=O)Nc2ccncn2)c1F (relative stereo) [Example 66, 2-Fluoro-3-methyl-4-{[(1S*,2R*)-2-(1-methyl-1H-pyrazol-5-yl)cyclohexyl]oxy}-N-(pyrimidin-4-yl)benzenesulfonamide]	A (“A” when the rate was 61 to 100%)
0.043	Cn1nccc1[C@H]1CC(C)(C)CC[C@@H]1Oc1cc(F)c(S(=O)(=O)Nc2ccncn2)cc1F (relative stereo) [Example 67, 4-{[(1S*,2R*)-4,4-Dimethyl-2-(1-methyl-1H-pyrazol-5-yl)cyclohexyl]oxy}-2,5-difluoro-N-(pyrimidin-4-yl)benzenesulfonamide]	C (“C” when the rate was 0 to 30%)
0.086	Cc1cc(S(=O)(=O)Nc2ccncn2)c(F)cc1O[C@H]1CCCC[C@@H]1c1c[nH]nc1N (relative stereo) [Example 68, 4-{[(1S*,2R*)-2-(3-Amino-1H-pyrazol-4-yl)cyclohexyl]oxy}-2-fluoro-5-methyl-N-(pyrimidin-4-yl)benzenesulfonamide]	B (“B” when the rate was 31 to 60%)
0.087	Nc1ncccc1[C@H]1CCCC[C@@H]1Oc1cc(F)c(S(=O)(=O)Nc2ccncn2)cc1F (relative stereo) [Example 69, 4-{[(1S*,2R*)-2-(2-Aminopyridin-3-yl)cyclohexyl]oxy}-2,5-difluoro-N-(pyrimidin-4-yl)benzenesulfonamide]	B (“B” when the rate was 31 to 60%)
0.15	Nc1n[nH]cc1[C@H]1CCCC[C@@H]1Oc1cc(F)c(S(=O)(=O)Nc2ccncn2)cc1Cl (relative stereo) [Example 71, 4-{[(1S*,2R*)-2-(3-Amino-1H-pyrazol-4-yl)cyclohexyl]oxy}-5-chloro-2-fluoro-N-(pyrimidin-4-yl)benzenesulfonamide]	A (“A” when the rate was 61 to 100%)
0.036	Cn1nccc1[C@H]1CCC(C)(C)C[C@@H]1Oc1cc(F)c(S(=O)(=O)Nc2ccncn2)cc1F (relative stereo) [Example 72, 4-{[(1S*,2R*)-5,5-Dimethyl-2-(1-methyl-1H-pyrazol-5-yl)cyclohexyl]oxy}-2,5-difluoro-N-(pyrimidin-4-yl)benzenesulfonamide]	C (“C” when the rate was 0 to 30%)
0.1	Cc1c(O[C@H]2CCCC[C@@H]2c2c[nH]nc2N)ccc(S(=O)(=O)Nc2ccncn2)c1F (relative stereo) [Example 73, 4-{[(1S*,2R*)-2-(3-Amino-1H-pyrazol-4-yl)cyclohexyl]oxy}-2-fluoro-3-methyl-N-(pyrimidin-4-yl)benzenesulfonamide]	A (“A” when the rate was 61 to 100%)
0.07	Cn1nccc1[C@H]1CCCC[C@@H]1Oc1ccc(S(=O)(=O)Nc2ccncn2)c(F)c1Cl (relative stereo) [Example 79, 3-Chloro-2-fluoro-4-{[(1S*,2R*)-2-(1-methyl-1H-pyrazol-5-yl)cyclohexyl]oxy}-N-(pyrimidin-4-yl)benzenesulfonamide]	C (“C” when the rate was 0 to 30%)
0.086	Cn1nccc1[C@H]1CCC[C@@H]1Oc1ccc(S(=O)(=O)Nc2ccncn2)c(F)c1Cl (relative stereo) [Example 80, 3-Chloro-2-fluoro-4-{[(1S*,2R*)-2-(1-methyl-1H-pyrazol-5-yl)cyclopentyl]oxy}-N-(pyrimidin-4-yl)benzenesulfonamide]	C (“C” when the rate was 0 to 30%)
0.15	Cc1cc(S(=O)(=O)Nc2ccncn2)c(F)cc1O[C@H]1CCCC[C@@H]1c1cn[nH]c1 (relative stereo) [Example 81, 2-Fluoro-5-methyl-4-{[(1S*,2R*)-2-(1H-pyrazol-4-yl)cyclohexyl]oxy}-N-(pyrimidin-4-yl)benzenesulfonamide]	C (“C” when the rate was 0 to 30%)
0.056	Nc1nnccc1[C@H]1CCCC[C@@H]1Oc1cc(F)c(S(=O)(=O)Nc2ccncn2)cc1F (relative stereo) [Example 82, 4-{[(1S*,2R*)-2-(3-Aminopyridazin-4-yl)cyclohexyl]oxy}-2,5-difluoro-N-(pyrimidin-4-yl)benzenesulfonamide]	B (“B” when the rate was 31 to 60%)
0.65	O=S(=O)(Nc1ccncn1)c1ccc(O[C@H]2CCCC[C@@H]2c2cn[nH]c2)c(F)c1F (relative stereo) [Example 83, 2,3-Difluoro-4-{[(1S*,2R*)-2-(1H-pyrazol-4-yl)cyclohexyl]oxy}-N-(pyrimidin-4-yl)benzenesulfonamide]	B (“B” when the rate was 31 to 60%)
0.036	Cc1c(O[C@H]2CC(F)(F)CC[C@@H]2c2ccnn2C)ccc(S(=O)(=O)Nc2ccncn2)c1F (relative stereo) [Example 84, 4-{[(1S*,2R*)-5,5-Difluoro-2-(1-methyl-1H-pyrazol-5-yl)cyclohexyl]oxy}-2-fluoro-3-methyl-N-(pyrimidin-4-yl)benzenesulfonamide]	B (“B” when the rate was 31 to 60%)
0.17	Cc1cc(S(=O)(=O)Nc2ccncn2)c(F)cc1O[C@H]1CCC[C@@H]1c1c[nH]nc1N (relative stereo) [Example 85, 4-{[(1S*,2R*)-2-(3-Amino-1H-pyrazol-4-yl)cyclopentyl]oxy}-2-fluoro-5-methyl-N-(pyrimidin-4-yl)benzenesulfonamide]	B (“B” when the rate was 31 to 60%)
0.036	Cn1nccc1[C@H]1CCCC[C@@H]1Oc1cc(F)c(S(=O)(=O)Nc2nncs2)cc1Cl (relative stereo) [Example 86, 5-Chloro-2-fluoro-4-{[(1S*,2R*)-2-(1-methyl-1H-pyrazol-5-yl)cyclohexyl]oxy}-N-(1,3,4-thiadiazol-2-yl)benzenesulfonamide]	A (“A” when the rate was 61 to 100%)
0.28	Cn1nccc1[C@H]1CCC[C@@H]1Oc1cc(F)c(S(=O)(=O)Nc2nncs2)cc1Cl (relative stereo) [Example 87, 5-Chloro-2-fluoro-4-{[(1S*,2R*)-2-(1-methyl-1H-pyrazol-5-yl)cyclopentyl]oxy}-N-(1,3,4-thiadiazol-2-yl)benzenesulfonamide]	B (“B” when the rate was 31 to 60%)
0.32	Cn1nccc1[C@H]1CC(F)(F)CC[C@@H]1Oc1cc(F)c(S(=O)(=O)Nc2ccncn2)cc1F (relative stereo) [Example 88, 4-{[(1S*,2R*)-4,4-Difluoro-2-(1-methyl-1H-pyrazol-5-yl)cyclohexyl]oxy}-2,5-difluoro-N-(pyrimidin-4-yl)benzenesulfonamide]	C (“C” when the rate was 0 to 30%)
0.089	Cc1cc(S(=O)(=O)Nc2ccncn2)c(F)cc1O[C@H]1CC(F)(F)CC[C@@H]1c1ccnn1C (relative stereo) [Example 90, 4-{[(1S*,2R*)-5,5-Difluoro-2-(1-methyl-1H-pyrazol-5-yl)cyclohexyl]oxy}-2-fluoro-5-methyl-N-(pyrimidin-4-yl)benzenesulfonamide]	B (“B” when the rate was 31 to 60%)
0.17	Nc1n[nH]cc1[C@H]1CCCC[C@@H]1Oc1ccc(S(=O)(=O)Nc2ccncn2)c(F)c1Cl (relative stereo) [Example 91, 4-{[(1S*,2R*)-2-(3-Amino-1H-pyrazol-4-yl)cyclohexyl]oxy}-3-chloro-2-fluoro-N-(pyrimidin-4-yl)benzenesulfonamide]	A (“A” when the rate was 61 to 100%)
0.065	Cn1nccc1[C@H]1CC(C)(C)C[C@@H]1Oc1cc(F)c(S(=O)(=O)Nc2ccncn2)cc1F (relative stereo) [Example 93, 4-{[(1S*,2R*)-4,4-Dimethyl-2-(1-methyl-1H-pyrazol-5-yl)cyclopentyl]oxy}-2,5-difluoro-N-(pyrimidin-4-yl)benzenesulfonamide]	B (“B” when the rate was 31 to 60%)
0.12	O=S(=O)(Nc1ccncn1)c1c(F)cc(O[C@H]2CCCC[C@@H]2c2cn[nH]c2)cc1F (relative stereo) [Example 94, 2,6-Difluoro-4-{[(1S*,2R*)-2-(1H-pyrazol-4-yl)cyclohexyl]oxy}-N-(pyrimidin-4-yl)benzenesulfonamide]	A (“A” when the rate was 61 to 100%)
0.17	[2H]c1nccc(NS(=O)(=O)c2ccc(O[C@H]3CCC[C@@H]3c3ccnn3CC)c(F)c2F)n1 (relative stereo) [Example 95, 4-{[(1S*,2R*)-2-(1-Ethyl-1H-pyrazol-5-yl)cyclopentyl]oxy}-2,3-difluoro-N-(2-^2H) (pyrimidin-4-yl)benzenesulfonamide]	C (“C” when the rate was 0 to 30%)
0.25	CC(=O)Nc1n[nH]cc1[C@H]1CCCC[C@@H]1Oc1cc(F)c(S(=O)(=O)Nc2ccncn2)cc1C (relative stereo) [Example 96, N-(4-{(1R*,2S*)-2-[5-fluoro-2-methyl-4-((pyrimidin-4-yl)sulfamoyl)phenoxy]cyclohexyl}-1H-pyrazol-3-yl)acetamide]	A (“A” when the rate was 61 to 100%)
0.034	Cn1nccc1[C@H]1C[C@@H](OCc2ccccc2)C[C@@H]1Oc1cc(F)c(S(=O)(=O)Nc2ccncn2)cc1F (relative stereo) [Example 97, 4-{[(1S*,2R*,4R*)-4-(Benzyloxy)-2-(1-methyl-1H-pyrazol-5-yl)cyclopentyl]oxy}-2,5-difluoro-N-(pyrimidin-4-yl)benzenesulfonamide]	C (“C” when the rate was 0 to 30%)
